# Assay results taken from the supplement of paper PMC10307832.
# Experiments:
# Assay in all cases: relative viability (nuclei count vs DMSO), 5 days (fraction); higher = more cells survive
# [1] = tested on: LCLC-97TM1
# Outline: (§1)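 Lung cancer cell lines in 1536-well plates got either a single drug or a fixed anchor-drug dose together with five library-drug doses (not always all listed) in √10 steps, by pin tool, on the day after seeding. Nuclei were counted after 5 days, and relative viability is the treated-to-vehicle ratio of nuclei counts. Values are medians of duplicate plates.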
# [2] = tested on: NCI-H661
# Outline: as §1
# [3] = tested on: NCI-H1651
# Outline: as §1
# [4] = tested on: NCI-H1650
# Outline: as §1
# [5] = tested on: NCI-H650
# Outline: as §1
# [6] = tested on: ABC-1
# Outline: as §1
# [7] = tested on: NCI-H727
# Outline: as §1
# [8] = tested on: NCI-H2087
# Outline: as §1
# [9] = tested on: PC-3 [JPC-3]
# Outline: as §1
# [10] = tested on: NCI-H596
# Outline: as §1
# [11] = tested on: NCI-H1792
# Outline: as §1
# [12] = tested on: LC-2-ad
# Outline: as §1
# [13] = tested on: NCI-H441
# Outline: as §1
# [14] = tested on: CAL-12T
# Outline: as §1
# [15] = tested on: NCI-H1944
# Outline: as §1
# [16] = tested on: NCI-H520
# Outline: as §1
# [17] = tested on: A-427
# Outline: as §1
# [18] = tested on: NCI-H1915
# Outline: as §1
# [19] = tested on: H3255
# Outline: as §1
# [20] = tested on: BEN
# Outline: as §1
# [21] = tested on: NCI-H460
# Outline: as §1
# [22] = tested on: NCI-H2023
# Outline: as §1
# [23] = tested on: 201T
# Outline: as §1
compound,measurement,setting,value
NC(=O)Nc1cc(-c2cccc(F)c2)sc1C(=O)N[C@H]1CCCNC1 [AZD7762] + CCNC(=O)c1noc(-c2cc(C(C)C)c(O)cc2O)c1-c1ccc(CN2CCOCC2)cc1 [Luminespib] (partner 0.01 µM),relative viability,[1]; first compound 0.01 µM,0.876
same,relative viability,[1]; first compound 0.03162 µM,0.706
same,relative viability,[1]; first compound 0.1 µM,0.738
same,relative viability,[1]; first compound 0.3162 µM,0.771
same,relative viability,[1]; first compound 1 µM,0.786
same,relative viability,[2]; first compound 0.01 µM,1.01
same,relative viability,[2]; first compound 0.03162 µM,1
same,relative viability,[2]; first compound 0.1 µM,1.02
same,relative viability,[2]; first compound 0.3162 µM,0.971
same,relative viability,[2]; first compound 1 µM,0.417
same,relative viability,[3]; first compound 0.01 µM,0.98
same,relative viability,[3]; first compound 0.03162 µM,0.872
same,relative viability,[3]; first compound 0.1 µM,0.802
same,relative viability,[3]; first compound 0.3162 µM,0.487
same,relative viability,[3]; first compound 1 µM,0.215
same,relative viability,[4]; first compound 0.01 µM,0.191
same,relative viability,[4]; first compound 0.03162 µM,0.175
same,relative viability,[4]; first compound 0.1 µM,0.22
same,relative viability,[4]; first compound 0.3162 µM,0.186
same,relative viability,[4]; first compound 1 µM,0.192
same,relative viability,[5]; first compound 0.01 µM,0.801
same,relative viability,[5]; first compound 0.03162 µM,0.728
same,relative viability,[5]; first compound 0.1 µM,0.763
same,relative viability,[5]; first compound 0.3162 µM,0.641
same,relative viability,[5]; first compound 1 µM,0.458
same,relative viability,[6]; first compound 0.01 µM,0.545
same,relative viability,[6]; first compound 0.03162 µM,0.787
same,relative viability,[6]; first compound 0.1 µM,0.361
same,relative viability,[6]; first compound 0.3162 µM,0.374
same,relative viability,[6]; first compound 1 µM,0.305
same,relative viability,[7]; first compound 0.01 µM,0.24
same,relative viability,[7]; first compound 0.03162 µM,0.499
same,relative viability,[7]; first compound 0.1 µM,0.291
same,relative viability,[7]; first compound 0.3162 µM,0.325
same,relative viability,[7]; first compound 1 µM,0.279
same,relative viability,[8]; first compound 0.01 µM,0.203
same,relative viability,[8]; first compound 0.03162 µM,0.145
same,relative viability,[8]; first compound 0.1 µM,0.237
same,relative viability,[8]; first compound 0.3162 µM,0.173
same,relative viability,[8]; first compound 1 µM,0.162
same,relative viability,[9]; first compound 0.01 µM,0.735
same,relative viability,[9]; first compound 0.03162 µM,0.67
same,relative viability,[9]; first compound 0.1 µM,0.702
same,relative viability,[9]; first compound 0.3162 µM,0.713
same,relative viability,[9]; first compound 1 µM,0.673
same,relative viability,[10]; first compound 0.01 µM,0.985
same,relative viability,[10]; first compound 0.03162 µM,1.02
same,relative viability,[10]; first compound 0.1 µM,0.999
same,relative viability,[10]; first compound 0.3162 µM,1.07
same,relative viability,[10]; first compound 1 µM,1.03
same,relative viability,[11]; first compound 0.01 µM,0.586
same,relative viability,[11]; first compound 0.03162 µM,0.472
same,relative viability,[11]; first compound 0.1 µM,0.392
same,relative viability,[11]; first compound 0.3162 µM,0.484
same,relative viability,[11]; first compound 1 µM,0.481
same,relative viability,[12]; first compound 0.01 µM,1.27
same,relative viability,[12]; first compound 0.03162 µM,1.09
same,relative viability,[12]; first compound 0.1 µM,1.05
same,relative viability,[12]; first compound 0.3162 µM,0.991
same,relative viability,[12]; first compound 1 µM,0.646
same,relative viability,[13]; first compound 0.01 µM,0.402
same,relative viability,[13]; first compound 0.03162 µM,0.489
same,relative viability,[13]; first compound 0.1 µM,0.285
same,relative viability,[13]; first compound 0.3162 µM,0.436
same,relative viability,[13]; first compound 1 µM,0.212
same,relative viability,[14]; first compound 0.01 µM,0.331
same,relative viability,[14]; first compound 0.03162 µM,0.397
same,relative viability,[14]; first compound 0.1 µM,0.17
same,relative viability,[14]; first compound 0.3162 µM,0.147
same,relative viability,[14]; first compound 1 µM,0.223
same,relative viability,[15]; first compound 0.01 µM,0.85
same,relative viability,[15]; first compound 0.03162 µM,0.838
same,relative viability,[15]; first compound 0.1 µM,0.871
same,relative viability,[15]; first compound 0.3162 µM,0.82
same,relative viability,[15]; first compound 1 µM,0.689
same,relative viability,[16]; first compound 0.01 µM,0.208
same,relative viability,[16]; first compound 0.03162 µM,0.191
same,relative viability,[16]; first compound 0.1 µM,0.238
same,relative viability,[16]; first compound 0.3162 µM,0.254
same,relative viability,[16]; first compound 1 µM,0.234
same,relative viability,[17]; first compound 0.01 µM,1.23
same,relative viability,[17]; first compound 0.03162 µM,0.967
same,relative viability,[17]; first compound 0.1 µM,0.815
same,relative viability,[17]; first compound 0.3162 µM,0.58
same,relative viability,[17]; first compound 1 µM,0.322
same,relative viability,[18]; first compound 0.01 µM,0.828
same,relative viability,[18]; first compound 0.03162 µM,0.829
same,relative viability,[18]; first compound 0.1 µM,0.743
same,relative viability,[18]; first compound 0.3162 µM,0.555
same,relative viability,[18]; first compound 1 µM,0.434
same,relative viability,[19]; first compound 0.01 µM,1.02
same,relative viability,[19]; first compound 0.03162 µM,0.982
same,relative viability,[19]; first compound 0.1 µM,0.975
same,relative viability,[19]; first compound 0.3162 µM,0.913
same,relative viability,[19]; first compound 1 µM,0.962
same,relative viability,[20]; first compound 0.01 µM,0.16
same,relative viability,[20]; first compound 0.03162 µM,0.665
same,relative viability,[20]; first compound 0.1 µM,0.188
same,relative viability,[20]; first compound 0.3162 µM,0.43
same,relative viability,[20]; first compound 1 µM,0.533
same,relative viability,[21]; first compound 0.01 µM,0.0439
same,relative viability,[21]; first compound 0.03162 µM,0.0339
same,relative viability,[21]; first compound 0.1 µM,0.036
same,relative viability,[21]; first compound 0.3162 µM,0.026
same,relative viability,[21]; first compound 1 µM,0.0276
same,relative viability,[22]; first compound 0.01 µM,0.824
same,relative viability,[22]; first compound 0.03162 µM,0.498
same,relative viability,[22]; first compound 0.1 µM,0.228
same,relative viability,[22]; first compound 0.3162 µM,0.141
same,relative viability,[22]; first compound 1 µM,0.114
same,relative viability,[23]; first compound 0.01 µM,1.11
same,relative viability,[23]; first compound 0.03162 µM,1.07
same,relative viability,[23]; first compound 0.1 µM,1.06
same,relative viability,[23]; first compound 0.3162 µM,1.14
same,relative viability,[23]; first compound 1 µM,0.913
